# Source: patent US6737383B1, “Herbicidal oxadiazolidines” (priority 1999, dated 2004)
# Columns and labels:
# [1] = system: purple nutsedge; assay: Test B pre/postemergence purple nutsedge; format: in vivo, Cyperus rotundus
# In short: (§1)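 Herbicidal effect was estimated by eye on a ten-point control scale after plants spent twelve to sixteen days in a greenhouse following soil or foliar treatment. Foliar sprays targeted plants at one to four leaves; all doses were formulated in a non-phytotoxic solvent with surfactant.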
# [2] = system: blackgrass; assay: Test B pre/postemergence blackgrass; format: in vivo, Alopecurus myosuroides
# In short: as §1
# [3] = system: rape; assay: Test B pre/postemergence rape; format: in vivo, Brassica napus
# In short: as §1
# [4] = system: soybean; assay: Test B pre/postemergence soybean; format: in vivo, Glycine max
# In short: as §1
# [5] = system: velvetleaf; assay: Test B pre/postemergence velvetleaf; format: in vivo, Abutilon theophrasti
# In short: as §1
# [6] = system: wild oat; assay: Test B pre/postemergence wild oat; format: in vivo, Avena fatua
# In short: as §1
# [7] = system: morningglory; assay: Test B pre/postemergence morningglory; format: in vivo, Ipomoea hederacea
# In short: as §1
# [8] = system: crabgrass; assay: Test B pre/postemergence crabgrass; format: in vivo, Digitaria sanguinalis
# In short: as §1
# [9] = system: duck salad; assay: Test B flood test duck salad; format: in vivo, Heteranthera limosa
# In short: (§2)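 Read-out is a visual response score from 0 (no effect) to 10 (complete control), assigned by comparison with untreated controls. Treatment was applied at the 2-leaf stage, and plants stayed in the greenhouse for twelve to sixteen days before scoring.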
# [10] = system: sugar beet; assay: Test B pre/postemergence sugar beet; format: in vivo, Beta vulgaris
# In short: as §1
# [11] = system: bamyardgrass; assay: Test B flood test barnyardgrass; format: in vivo, Echinochloa crus-galli
# In short: as §2
# [12] = system: surinam grass; assay: Test B pre/postemergence surinam grass; format: in vivo, Brachiaria decumbens
# In short: as §1
# [13] = system: bedstraw; assay: Test B pre/postemergence bedstraw; format: in vivo, Galium aparine; conditions: Preemergence, Rate 62 g/ha; scale 0 to 10 (0 no effect, 10 complete control)
# In short: as §1
# [14] = system: wheat; assay: Test B pre/postemergence wheat; format: in vivo, Triticum aestivum
# In short: as §1
# [15] = system: giant foxtail; assay: Test B pre/postemergence giant foxtail; format: in vivo, Setaria faberii
# In short: as §1
# [16] = system: corn; assay: Test B pre/postemergence corn; format: in vivo, Zea mays
# In short: as §1
# [17] = system: pigweed; assay: Test B pre/postemergence pigweed; format: in vivo, Amaranthus retroflexus
# In short: as §1
# [18] = system: cocklebur; assay: Test B pre/postemergence cocklebur; format: in vivo, Xanthium strumarium
# In short: as §1
# [19] = system: rice; assay: Test B flood test rice; format: in vivo, Oryza sativa
# In short: as §2
# [20] = system: smallflower flatsedge; assay: Test B flood test smallflower flatsedge; format: in vivo, Cyperus difformis
# In short: as §2
# [21] = Postemergence, Rate 250 g/ha, scale 0 to 10, 0 is no effect, 10 is complete control
# [22] = Postemergence, Rate 500 g/ha, scale of 0 to 10 where 0 is no effect and 10 is complete control
# [23] = Preemergence, Rate 62 g/ha, scale 0 to 10 (0 no effect, 10 complete control)
# [24] = Preemergence, Rate 125 g/ha, scale of 0 to 10 where 0 is no effect and 10 is complete control
# [25] = Preemergence, Rate 250 g/ha, scale of 0 to 10 where 0 is no effect and 10 is complete control
# [26] = Preemergence, Rate 500 g/ha, scale of 0 to 10 where 0 is no effect and 10 is complete control
# [27] = Rate 62 g/ha, Postemergence, scale of 0 to 10 where 0 is no effect and 10 is complete control
# [28] = Postemergence, Rate 125 g/ha, scale 0 to 10, 0 is no effect, 10 is complete control
# [29] = Rate 62 g/ha, flood test species, Pre-emergence, visual evaluation after twelve to sixteen days
# [30] = Rate 125 g/ha, under heading Pre-emergence, flood test species, visual evaluation after twelve to sixteen days
# [31] = Rate 250 g/ha, Pre-emergence, flood-test species, scale 0 to 10, 0 is no effect, 10 is complete control
# [32] = Rate 500 g/ha, Pre-emergence, flood test species, scale 0 to 10 (0 no effect, 10 complete control)
smiles,measurement,setting,value
CC(C)N(C(=O)n1oc(=O)n(C(C)Cl)c1=O)c1ccc(F)cc1 (stereo not shown) [Compound 393],"Plant response rating, Nutsedge",[1]; [21],0
same,Nutsedge plant response rating,[1]; [22],0
same,"Plant response rating, Nutsedge",[1]; [23],0
same,"Plant response rating, Nutsedge",[1]; [24],0
same,Nutsedge plant response rating,[1]; [25],0
same,Nutsedge plant response rating,[1]; [26],0
same,Nutsedge plant response rating,[1]; [27],0
same,"Plant response rating, Blackgrass",[2]; [28],2
same,"Plant response rating, Blackgrass",[2]; [21],3
same,Blackgrass plant response rating,[2]; [22],8
same,"Plant response rating, Blackgrass",[2]; [23],0
same,"Plant response rating, Blackgrass",[2]; [24],0
same,Blackgrass plant response rating,[2]; [25],0
same,Blackgrass plant response rating,[2]; [26],3
same,Blackgrass plant response rating,[2]; [27],0
same,"Plant response rating, Rape",[3]; [21],3
same,"Plant response rating, Rape",[3]; [23],0
same,"Plant response rating, Rape",[3]; [24],0
same,Rape plant response rating,[3]; [25],0
same,Rape plant response rating,[3]; [26],0
same,"Plant response rating, Soybean",[4]; [21],2
same,Soybean plant response rating,[4]; [22],2
same,"Plant response rating, Soybean",[4]; [23],0
same,"Plant response rating, Soybean",[4]; [24],0
same,Soybean plant response rating,[4]; [25],0
same,Soybean plant response rating,[4]; [26],0
same,Soybean plant response rating,[4]; [27],1
same,"Plant response rating, Velvetleaf",[5]; [21],0
same,Velvetleaf plant response rating,[5]; [22],0
same,"Plant response rating, Velvetleaf",[5]; [23],0
same,"Plant response rating, Velvetleaf",[5]; [24],0
same,Velvetleaf plant response rating,[5]; [25],0
same,Velvetleaf plant response rating,[5]; [26],0
same,Velvetleaf plant response rating,[5]; [27],0
same,Wild oats plant response rating,[6]; [22],0
same,"Plant response rating, Wild oats",[6]; [23],0
same,"Plant response rating, Wild oats",[6]; [24],0
same,Wild oats plant response rating,[6]; [25],0
same,Wild oats plant response rating,[6]; [26],3
same,Wild oats plant response rating,[6]; [27],0
same,"Plant response rating, Morningglory",[7]; [21],0
same,Morningglory plant response rating,[7]; [22],0
same,"Plant response rating, Morningglory",[7]; [23],0
same,"Plant response rating, Morningglory",[7]; [24],0
same,Morningglory plant response rating,[7]; [25],0
same,Morningglory plant response rating,[7]; [26],2
same,Morningglory plant response rating,[7]; [27],0
same,"Plant response rating, Crabgrass",[8]; [28],1
same,"Plant response rating, Crabgrass",[8]; [21],5
same,Crabgrass plant response rating,[8]; [22],8
same,"Plant response rating, Crabgrass",[8]; [23],0
same,"Plant response rating, Crabgrass",[8]; [24],2
same,Crabgrass plant response rating,[8]; [25],3
same,Crabgrass plant response rating,[8]; [26],8
same,Crabgrass plant response rating,[8]; [27],0
same,"Plant response rating, Ducksalad (0 to 10 scale, 0 is no effect, 10 is complete control)",[9]; [29],0
same,"Ducksalad plant response rating (0 to 10 scale, 0 is no effect, 10 is complete control)",[9]; [30],0
same,Ducksalad plant response rating,[9]; [31],0
same,Ducksalad plant response rating,[9]; [32],0
same,"Plant response rating, Sugarbeets",[10]; [21],0
same,Sugarbeets plant response rating,[10]; [22],7
same,"Plant response rating, Sugarbeets",[10]; [23],0
same,"Plant response rating, Sugarbeets",[10]; [24],2
same,Sugarbeets plant response rating,[10]; [25],2
same,Sugarbeets plant response rating,[10]; [26],3
same,Sugarbeets plant response rating,[10]; [27],0
same,"Plant response rating, Barnyardgrass (0 to 10 scale, 0 is no effect, 10 is complete control)",[11]; [29],0
same,"Barnyardgrass plant response rating (0 to 10 scale, 0 is no effect, 10 is complete control)",[11]; [30],0
same,Barnyardgrass plant response rating,[11]; [31],0
same,Barnyardgrass plant response rating,[11]; [32],0
same,"Plant response rating, B. signalgrass",[12]; [28],0
same,"Plant response rating, B. signalgrass",[12]; [21],0
same,B. signalgrass plant response rating,[12]; [22],0
same,"Plant response rating, B. signalgrass",[12]; [23],0
same,"Plant response rating, B. signalgrass",[12]; [24],0
same,B. signalgrass plant response rating,[12]; [25],0
same,B. signalgrass plant response rating,[12]; [26],2
same,B. signalgrass plant response rating,[12]; [27],0
same,"Plant response rating, Bedstraw",[13],0
same,Wheat plant response rating,[14]; [22],0
same,"Plant response rating, Wheat",[14]; [23],0
same,"Plant response rating, Wheat",[14]; [24],0
same,Wheat plant response rating,[14]; [25],0
same,Wheat plant response rating,[14]; [26],0
same,Wheat plant response rating,[14]; [27],0
same,"Plant response rating, Giant foxtail",[15]; [28],8
same,"Plant response rating, Giant foxtail",[15]; [21],9
same,Giant foxtail plant response rating,[15]; [22],9
same,"Plant response rating, Giant foxtail",[15]; [23],1
same,"Plant response rating, Giant foxtail",[15]; [24],9
same,Giant foxtail plant response rating,[15]; [25],10
same,Giant foxtail plant response rating,[15]; [26],10
same,Giant foxtail plant response rating,[15]; [27],5
same,"Plant response rating, Corn",[16]; [28],0
same,"Plant response rating, Corn",[16]; [21],0
same,Corn plant response rating,[16]; [22],0
same,"Plant response rating, Corn",[16]; [23],0
same,"Plant response rating, Corn",[16]; [24],0
same,Corn plant response rating,[16]; [25],0
same,Corn plant response rating,[16]; [26],0
same,Corn plant response rating,[16]; [27],0
same,"Plant response rating, Redroot pigweed",[17]; [21],0
same,Redroot pigweed plant response rating,[17]; [22],0
same,"Plant response rating, Redroot pigweed",[17]; [23],0
same,"Plant response rating, Redroot pigweed",[17]; [24],2
same,Redroot pigweed plant response rating,[17]; [25],2
same,Redroot pigweed plant response rating,[17]; [26],10
same,Redroot pigweed plant response rating,[17]; [27],0
same,"Plant response rating, Cocklebur",[18]; [28],0
same,"Plant response rating, Cocklebur",[18]; [21],0
same,Cocklebur plant response rating,[18]; [22],0
same,"Plant response rating, Cocklebur",[18]; [23],0
same,"Plant response rating, Cocklebur",[18]; [24],0
same,Cocklebur plant response rating,[18]; [25],0
same,Cocklebur plant response rating,[18]; [26],0
same,Cocklebur plant response rating,[18]; [27],0
same,"Plant response rating, Rice (0 to 10 scale, 0 is no effect, 10 is complete control)",[19]; [29],0
same,"Rice plant response rating (0 to 10 scale, 0 is no effect, 10 is complete control)",[19]; [30],0
same,Rice plant response rating,[19]; [31],0
same,Rice plant response rating,[19]; [32],0
same,"Plant response rating, S. Flatsedge (0 to 10 scale, 0 is no effect, 10 is complete control)",[20]; [29],0
same,"S. Flatsedge plant response rating (0 to 10 scale, 0 is no effect, 10 is complete control)",[20]; [30],0
same,S. Flatsedge plant response rating,[20]; [31],0
same,S. Flatsedge plant response rating,[20]; [32],0
